Source: PubChem BioAssay (NCI)
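A five-concentration, 48-hour dose response in 96-well plates underlies each endpoint, interpolated linearly between surrounding concentrations. GI50 is the concentration that inhibits growth by half. The concentration for full growth arrest is given as TGI.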

Experiments:
Assay in all cases: NCI anticancer screen, dose series, 48 h; in the data active = GI50 below about 0.43 µM; inactive = the rest
[1] = test system: 786-0 renal
[2] = test system: A498 renal
[3] = test system: A549 NSCLC
[4] = test system: ACHN renal
[5] = test system: BT-549 breast
[6] = test system: CAKI-1 renal
[7] = test system: CCRF-CEM leukemia
[8] = test system: COLO 205 colon
[9] = test system: DU-145 prostate
[10] = test system: HCC-2998 colon
[11] = test system: HCT-116 colon
[12] = test system: HCT-15 colon
[13] = test system: HL-60(TB) leukemia
[14] = test system: HOP-62 NSCLC
[15] = test system: HOP-92 NSCLC
[16] = test system: HS 578T breast
[17] = test system: HT29 colon
[18] = test system: IGROV1 ovarian
[19] = test system: K-562 leukemia
[20] = test system: KM12 colon
[21] = test system: LOX IMVI melanoma
[22] = test system: M14 melanoma
[23] = test system: MALME-3M melanoma
[24] = test system: MCF7 breast
[25] = test system: MDA-MB-231 breast
[26] = test system: MDA-MB-435
[27] = test system: MOLT-4 leukemia
[28] = test system: NCI-H226 lung
[29] = test system: NCI-H23 lung
[30] = test system: NCI-H460 lung
[31] = test system: NCI-H522 lung
[32] = test system: NCI/ADR-RES ovarian
[33] = test system: OVCAR-3 ovarian
[34] = test system: OVCAR-4 ovarian
[35] = test system: OVCAR-5 ovarian
[36] = test system: OVCAR-8 ovarian
[37] = test system: PC-3 prostate
[38] = test system: RPMI-8226 leukemia
[39] = test system: RXF 393 renal
[40] = test system: SF-268 CNS
[41] = test system: SF-295 CNS
[42] = test system: SF-539 CNS
[43] = test system: SK-MEL-28 melanoma
[44] = test system: SK-MEL-5 melanoma
[45] = test system: SK-OV-3 ovarian
[46] = test system: SN12C renal
[47] = test system: SNB-19 CNS
[48] = test system: SNB-75 CNS
[49] = test system: SR leukemia
[50] = test system: SW-620 colon
[51] = test system: T-47D breast
[52] = test system: TK-10 renal
[53] = test system: U251 CNS
[54] = test system: UACC-257 melanoma
[55] = test system: UACC-62 melanoma
[56] = test system: UO-31 renal

COc1ccc(-c2nsc3c2NC(=O)CC3c2ccsc2)cc1 (stereo unspecified)
2760 nM: TGI [44]
21000 nM: TGI [38]
846 nM: TGI [8]
> 100000 nM: TGI [1] | TGI [3] | TGI [4] | TGI [6] | TGI [7] | TGI [11] | TGI [12] | TGI [14] | TGI [16] | TGI [18] | TGI [19] | TGI [21] | TGI [24] | TGI [25] | TGI [34] | TGI [35] | TGI [37] | TGI [39] | TGI [40] | TGI [43] | TGI [46] | TGI [47] | TGI [48] | TGI [49] | TGI [50] | TGI [52] | TGI [53] | TGI [56]
64.4 nM: TGI [26]
65000 nM: TGI [55]
38400 nM: TGI [54]
16900 nM: TGI [28]
23600 nM: TGI [22]
2870 nM: TGI [9]
inactive: GI50 [1] 1250 nM | GI50 [4] 1060 nM | GI50 [5] 1280 nM | GI50 [10] 528 nM | GI50 [18] 984 nM | GI50 [25] 1260 nM | GI50 [27] 514 nM | GI50 [28] 2150 nM | GI50 [34] 3470 nM | GI50 [35] 773 nM | GI50 [40] 1340 nM | GI50 [43] 4260 nM | GI50 [46] 830 nM | GI50 [47] 1050 nM | GI50 [51] 454 nM | GI50 [52] 13800 nM | GI50 [54] 3080 nM | GI50 [56] 1840 nM
278 nM: TGI [32]
81500 nM: TGI [15]
808 nM: TGI [2]
72900 nM: TGI [23]
> 34000 nM: TGI [20]
> 51500 nM: TGI [41]
611 nM: TGI [33]
65600 nM: TGI [51]
9490 nM: TGI [30]
40800 nM: TGI [5]
20600 nM: TGI [13]
24100 nM: TGI [27]
32800 nM: TGI [17]
13700 nM: TGI [45]
> 22700 nM: TGI [10]
active: GI50 [2] 171 nM | GI50 [3] 211 nM | GI50 [6] 298 nM | GI50 [7] 268 nM | GI50 [8] 110 nM | GI50 [9] 422 nM | GI50 [11] 126 nM | GI50 [12] 101 nM | GI50 [13] 143 nM | GI50 [14] 371 nM | GI50 [15] 334 nM | GI50 [16] 269 nM | GI50 [17] 64.3 nM | GI50 [19] 46.9 nM | GI50 [20] 71.5 nM | GI50 [21] 422 nM | GI50 [22] 167 nM | GI50 [23] 135 nM | GI50 [24] 320 nM | GI50 [26] 23.5 nM | GI50 [29] 375 nM | GI50 [30] 228 nM | GI50 [31] 139 nM | GI50 [32] 64 nM | GI50 [33] 211 nM | GI50 [36] 409 nM | GI50 [37] 334 nM | GI50 [38] 279 nM | GI50 [39] 367 nM | GI50 [41] 211 nM | GI50 [42] 266 nM | GI50 [44] 99.2 nM | GI50 [45] 313 nM | GI50 [48] 119 nM | GI50 [49] 38.4 nM | GI50 [50] 68.4 nM | GI50 [53] 299 nM | GI50 [55] 295 nM
4250 nM: TGI [31]
73800 nM: TGI [29]
> 25200 nM: TGI [36]
